What follows are substances tested on 5′ UTR of HCV mRNA (assay: Phage panning and phage Elisa on biotinylated RNA target). Details: phage clones; positive if A405 >2-fold over background.
Type: binding
Experimental: Surrogate peptides were obtained by panning a portion of the 5′ UTR of HCV mRNA using both the 20 mer and 40 mer random libraries. All solutions and surfaces were pretreated with DEPC or RNaseZap (Ambion, Inc.), respectively, to eliminate RNase contamination that may compromise the integrity of the RNA. Biotinylated—RNA target was diluted to 1 mg/ml in binding buffer (PBS containing 1 mM MgCl2), denatured at 65° C. for 5 min and reannealed by slow cooling to room temperature to allow for appropriate refolding. The synthetic biotinylated-RNA target had the following sequence, 5′-biotin′AA UUGCCAGGACGACCGGGUCCUUUCUUGGAU CM CCC GCU CM UGC CUG GAG AUU-3′. Reannealed RNAs were stored in small aliquots (10-25 μl/tube) at −20° C. Microtiter wells were treated with RNaseZap (Ambion, Inc.) before use. One hundred microliters of RNA solution diluted to 2.5 ng/μl was added to an appropriate number of wells in a 96-well microtiter plate precoated with Streptavidin (Pierce) and incubated for 1 hr at room temperature. Unbound streptavidin was then blocked with 50 μl of 2 mM biotin at room temperature for 1 hr. Four wells were used for each round of panning and 100 μl phage was added to each well. Pahge were precipitated with RNase-free 6% PEG 8000+0.3 M NaCl, washed with the same solution once and resuspended in RNase-free PBS+1 mM MgCl2+Superasin (RNase inhibitor from Ambion, Inc.). For the first round, the input phage titer was 1×10^13 cfu/ml. For rounds 2 and 3, the input phage titer was approximately 10^11 cfu/ml. Phage were allowed to bind for two to three hours at room temperature. The wells were then quickly washed 13 times with 400 μl/well of PBS. Bound phage were eluted by incubation with 150 μl/well of 50 mM glycine-HCl, pH 2.2+0.1% BSA for 5 min. The resulting solution was then neutralized with Tris-HCl, pH 8.0. Log phase TG1 cells were infected with the eluted phage by incubation at 37° C. for 1 hr. Helper phage (M13KO7) was then added (multiplicity of infection(MOI)=15) and cells incubated in the presence of 50 μg/ml ampicillin and 2% glucose for 1 hr at 37° C. with shaking at 250 rpm. Following infection, cells were pelleted, resuspended in the initial culture volume of 2×YT containing 50 μg/ml ampicillin and 50 μg/ml Kanamycin and grown overnight at 37° C. with shaking at 225 rpm. Cells from the overnight culture were pelleted and supernatant containing phage was recovered. Phage was precipitated with 6% PEG 8000, 300 mM NaCl and chilled on ice for 1 hr. […]
For Elisa analysis of individual clones, colonies were picked and phage prepared as described above using helper phage, M13KO7. […] Plates were analyzed at 405 nm using a SpectraMax 340 plate reader (Molecular Devices) and SoftMax Pro software. […]
For FTTPRHLSGRTVQMMRDSTS [HCV-3-C3], the “Binding to HCV mRNA target” value was “binders”.
With “LLVTGQFP--SQLLLGGAVCGP--STPRLRTGLCRLSGT (LLVTGQFPSQLLLGGAVCGPSTPRLRTGLCRLSGT) [HCV-3-F5]” the “Binding to HCV mRNA target” value was “binders”.
“RRTCGDPAAMLERLSCRAGDYRGASHTGRLLNLRGMHQYP [HCV-3-H8]” was tested, and the “Binding to HCV mRNA target” value was “binders”.
For TSGESSGDRTRRVLTSSSARTILPN [HCV-NG-D9], the “Binding to HCV mRNA target” value was “binders”.

Reference: patent US20030054348A1, “Methods of identifying the activity of gene products” (priority 2000, published 2003)
